US20050031610A1, “CD44-related fragments, compositions and methods” (priority 2002, published 2005)
“Also recorded” adds a separate entry of the source.

How the values were obtained:
γ-secretase [1] = assay: Accumulation of membrane-associated CD44 C-terminal fragments in CD44-transfected CHO cells (Western blot, anti-V5); type: cell-based; settings: CHO cells transfected with CD44 C-terminal V5-tag, 16 hours
Experimental: FIG. 1. The accumulation of membrane-associated C-terminal derivatives of CD44 by a γ-secretase inhibitor. The CHO cells transfected with constructs encoding CD44 with C-terminal V5-tag were incubated in the presence of the indicated concentrations of γ-secretase inhibitor Compound E (Cpd. E) for 16 hours. Detergent lysates were analyzed by Western blot analyses (4-20% Tris-Glycine SDS-PAGE) using anti-V5 antibody.
When constructs encoding full-length CD44 with C-terminal V5 epitope tag were transiently expressed, full-length CD44 (˜85 kDa) was constitutively processed to generate membrane-associated C-terminal fragments with apparent molecular weights of ˜19 to 22 kDa (FIG. 1). First, experiments were performed to determine whether a γ-secretase inhibitor blocks the putative intramembrane cleavage of CD44 to cause an accumulation of CD44 similar to that observed for APP and ErbB4 (Lee, H.-J., Jung, K.-M., Huang, Y. Z., Bennett, L. B., Lee, J. S., Mei, L. and Kim, T.-W., Presenilin-dependent γ-secretase-like intramembrane cleavage of ErbB4. J. Biol. Chem., 277:6318-6329 (2002)).

CD44 = assay: Ligand-induced CD44 cleavage / generation of CD44-ICD in CD44-transfected cells (Western blot, anti-V5); type: cell-based
Excerpt: FIG. 5. (A) Schematic representations of truncated CD44 constructs and putative cleavage sites of CD44. Starting amino acid sequences of truncated (ΔE) or intracellular (ICD) CD44 constructs and predicated proteolytic cleavage sites are indicated by arrows. Full-length (FL) and all ICD constructs contain C-terminal V5 tag, whereas all ΔE constructs harbor N-terminal HA tag located immediately after the signal peptide in addition to the C-terminal V5 tag. (B) Expression of truncated CD44 constructs in HEK293 cells. The lysates from the cells transfected with indicated constructs were analyzed by Western blot analyses. The locations of precursor polypeptide encoded by each constructs as well as the cleavage products (e.g. S1, T1, and T2) are shown on the right side of each blot. The lysates from full-length CD44-transfected cells grown in the absence (FL) or presence (FL+hyaluronan) of hyaluronan are shown as controls.
FIG. 6. Ligand-induced generation of CD44-ICD. Cells were treated for 24 hours with solvent only (Control), hyaluronan, hyaluronan plus Cpd. E, phorbol ester TPA, and TPA plus hyaluronan, and the lysates were analyzed by Western blotting using anti-V5 antibody.
(§1) It has been previously reported that high molecular weight forms of hyaluronan (HA) induce cell growth arrest (Morrison et al., Genes and Development, 15, 968-980, 2001; Herrlich et al., Ann. NY Acad. Sci. 910, 106-118, 2000).

γ-secretase [2] = assay: In vitro CD44-ICD generation using membrane fractions from CD44-transfected 293 cells; type: biochemical; parameters: dose or concentration left out as unconfirmed; settings: membrane fractions from dW and dAsp cells, 37° C.
Experimental: FIG. 4. In vitro generation of the CD44 intracellular domain (CD44-ICD). Membrane fractions prepared from either dW or dAsp cells transfected with full-length CD44 were incubated at 37° C. for the indicated hours with or without Cpd E (1 mM) or MG132 (50 mM). After the incubation, both the pellet (A) and the supernatant (B) were analyzed by Western blot analyses […] using anti-V5 antibody.
The incubation of the cytosol-free membrane fractions from dW cells transfected with CD44 led to the generation of two fragments (T1 and T2) in the membrane fractions (FIG. 4A) and the release of V5-epitope-tagged CD44-ICD into the soluble fraction (FIG. 4B).

HEK293 cells = assay: Hyaluronan-mediated growth retardation, count of EGFP-positive CD44-transfected HEK293 cells; type: cell-based; settings: 40 hour incubation
Experimental: FIG. 7. Effects of a γ-secretase inhibitor in hyaluronan-mediated growth retardation. HEK293 cells were transfected with constructs encoding both full-length CD44 and enhance green fluorescence protein (EGFP) in a single plasmid. Identical number of transfected cells were plated into multiple dishes and incubated with hyaluronan, hyaluronan plus Cpd. E, TPA, and TPA plus Cpd. E. After 40 hour incubation, the number of EGFP-positive cells were counted. Values represent the mean±s.d.
as §1

Compound: C[C@H](NC(=O)Cc1cc(F)cc(F)c1)C(=O)N[C@H]1N=C(c2ccccc2)c2ccccc2N(C)C1=O [Compound E]
- accumulation of transgene-derived CD44 C-terminal fragments (γ-secretase [1]): led to the accumulation
- inhibition of the HA-induced accumulation of S1 and T1 cleavage products (CD44; hyaluronan plus Compound E): didn't inhibit
- effect on T2 cleavage products (CD44; hyaluronan plus Cpd. E, 24 hours): selectively affected
- generation of T1 fragments (γ-secretase [2]): not blocked
- effect on the growth inhibition induced by HA (HEK293 cells; hyaluronan plus Cpd. E): reverted the growth-inhibition

Compound: hyaluronan [HA]
- levels of S1 and T1 cleavage products (CD44; cells treated with high molecular weight forms of HA): elevated
- generation of CD44-ICD (CD44; cells treated with high molecular weight forms of HA, 24 hours): led to the generation of CD44-ICD
- generation of S1 and T2 cleavage (CD44; full-length CD44-transfected HEK293 cells, FL vs. FL+hyaluronan): increased generation
- growth of cells transfected with CD44 (HEK293 cells; HEK293 cells, full-length CD44 and EGFP): induced growth inhibition; also recorded: led to an inhibition of cell proliferation
